Bounds are passed on as bounds.

We go through four substances from patent publication US6335350B1, “Acetamide and substituted acetamide-containing thiourea inhibitors of herpes viruses” (American Home Products Corporation, priority 1998, dated 2002).

The subject of assay [1] is HCMV wild-type. Kind of assay: HCMV yield assay. It counts as cell-based, human cytomegalovirus. As to conditions: human foreskin fibroblasts. An outline of the steps:
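Value is the compound amount cutting virus yield titer by 50% (IC50) or 90% (IC90). Human foreskin fibroblasts infected with wild-type HCMV (MOI typically 0.2) under varying compound; progeny harvested day 3, titered compound-free on fibroblasts, plaques scored at 2 weeks.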

In assay [2] the test system is HSV-1. Kind of assay: HSV Antiviral (ELISA) Assay. The following applies: Vero cells, HSV-1. Format: cell-based, herpes simplex virus type 1. An outline of the steps:
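Replication measured as glycoprotein D signal in fixed cells: anti-gD antibody plus β-galactosidase-linked secondary, fluorogenic substrate read at 365/450 nm. Vero cells (2% FBS DMEM) received compound 30 min pre-infection, HSV-1 MOI 0.006, ~24 h incubation; IC50 relative to no-compound fluorescence.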
In general terms: In an ELISA, binding on a coated surface is turned into a signal by an enzyme label.

In assay [3] the test system is VZV strain Ellen. Kind of assay: VZV Antiviral (ELISA) Assay. As to conditions: human foreskin fibroblast cells. It counts as cell-based, varicella-zoster virus. In outline: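 Cell-based VZV (Ellen) spread assay in HFF, 3-day compound exposure in 2% FBS medium. Viral antigen quantified by fluorescent β-galactosidase ELISA; IC50 from inhibition of signal.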

Regarding “N-{4-[3-(4-Acetylamino-phenyl)-thioureido]-2-chloro-phenyl}-2-dipropylamino-acetamide [Example 410]”, the “IC50 Ug/ml HCMV” value in assay [1] is recorded as above 10 Ug/ml. For the same substance, the “IC50 Ug/ml HSV” value in assay [2] is above 10 Ug/ml. Also, in assay [3], the “% inhibition 10 ug/ml VZV” value is reported as 26% and the “IC50 Ug/ml VZV” value is given as above 10 Ug/ml.
Consider “N-{4-[3-(4-Acetylamino-phenyl)-thioureido]-2-chloro-phenyl}-2-pyrrolidin-1-yl-acetamide [Example 415]”, for which the “IC50 Ug/ml HCMV” value in assay [1] was above 10 Ug/ml. Also, the “IC50 Ug/ml HSV” value in assay [2] is recorded as above 10 Ug/ml. Moreover, in assay [3], the “% inhibition 10 ug/ml VZV” value was found to be 26% and the “IC50 Ug/ml VZV” value turned out to be 4.5 Ug/ml.
On to “N-{4-[3-(4-Acetylamino-phenyl)-thioureido]-2-chloro-phenyl}-2-thiomorpholin-4-yl-acetamide [Example 405]”, for which, in assay [1], the “IC50 Ug/ml HCMV” value was above 10 Ug/ml. The “IC50 Ug/ml HSV” value in assay [2] is reported as above 10 Ug/ml. For the same substance, in assay [3], the “% inhibition 10 ug/ml VZV” value came to 83% and the “IC50 Ug/ml VZV” value was 13 Ug/ml.
As to “N-{4-[3-(5-Chloro-2,4-dimethoxy-phenyl)-thioureido]-3-methoxy-phenyl}-acetamide [Example 388]”, the “IC50 Ug/ml HCMV” value in assay [1] was above 10 Ug/ml. Moreover, the “IC50 Ug/ml HSV” value in assay [2] was determined as 0.6 Ug/ml. In assay [3], the “% inhibition 10 ug/ml VZV” value came to 52% and the “IC50 Ug/ml VZV” value is above 10 Ug/ml.
